Test results taken from patent US8822449B2, “Substituted aminoindanes and analogs thereof, and the pharmaceutical use thereof” (Sanofi, priority 2008, dated 2014).
Where two headings read alike, the source gives them in different places.

Target: T1, sodium-proton exchanger of subtype 3 (NHE3) (Homo sapiens, UniProt P48764)
T1 construct: expressed in transfected cells
T1 sequence (P48764 26-834): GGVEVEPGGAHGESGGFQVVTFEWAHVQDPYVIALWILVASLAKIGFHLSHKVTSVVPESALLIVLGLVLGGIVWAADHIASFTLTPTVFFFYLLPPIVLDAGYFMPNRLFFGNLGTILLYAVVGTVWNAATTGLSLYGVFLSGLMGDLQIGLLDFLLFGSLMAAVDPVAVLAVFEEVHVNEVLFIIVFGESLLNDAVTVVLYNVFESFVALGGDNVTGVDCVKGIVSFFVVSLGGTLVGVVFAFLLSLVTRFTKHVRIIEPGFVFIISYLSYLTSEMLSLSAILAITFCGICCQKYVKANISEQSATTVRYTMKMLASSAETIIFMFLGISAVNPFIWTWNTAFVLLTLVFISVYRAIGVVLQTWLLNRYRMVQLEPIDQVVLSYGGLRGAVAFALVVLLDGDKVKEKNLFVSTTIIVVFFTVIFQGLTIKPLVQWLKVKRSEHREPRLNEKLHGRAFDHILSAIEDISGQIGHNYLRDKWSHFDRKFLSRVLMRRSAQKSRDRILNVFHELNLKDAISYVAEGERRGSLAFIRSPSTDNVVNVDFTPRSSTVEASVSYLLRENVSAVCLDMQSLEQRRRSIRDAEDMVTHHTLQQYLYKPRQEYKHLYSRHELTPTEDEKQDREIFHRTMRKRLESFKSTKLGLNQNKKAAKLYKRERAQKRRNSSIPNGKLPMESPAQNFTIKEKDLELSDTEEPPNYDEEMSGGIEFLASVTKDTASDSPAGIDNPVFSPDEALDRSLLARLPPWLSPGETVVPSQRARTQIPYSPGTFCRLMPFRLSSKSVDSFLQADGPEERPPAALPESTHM
Assay: Recovery of intracellular pH (pHi) after acidification in LAP1 cells stably expressing NHE3 (BCECF fluorescence, FLIPR)
Format: cell-based
Details: LAP1 cells stably expressing NHE3, pH recovery after acidification, range 1 is % inhibition at 10 μM

[1] = read-out: Activity range (inhibitory effect on NHE3)

| IC50 [1] [nM] | Compound | also measured |
| --- | --- | --- |
| – | N[C@H]1CCCN([C@H]2CCc3ccccc3[C@@H]2Oc2ccc(F)cc2F)C1 (racemic) [Example 149, (S)-1-[rac-trans-(1,2)-1-(2,4-difluorophenoxy)-1,2,3,4-tetrahydronaphthalen-2-yl]piperidin-3-ylamine] | inhibition at 10 µM [1]: 20 to 50% |
| 1000 to 10000 | O=S1(=O)CCCN1c1cccc(O[C@H]2c3ccccc3C[C@@H]2N2CCCC2)c1 (racemic) [Example 363, 2-[3-(rac-trans-(1,2)-2-pyrrolidin-1-ylindan-1-yloxy)phenyl]isothiazolidine 1,1-dioxide] | – |
| 1000 to 10000 | CN(C)S(=O)(=O)c1cc(Cl)c(O[C@H]2c3ccccc3C[C@@H]2N2CCCC2)c(Cl)c1 (racemic) [Example 403, 3,5-dichloro-N,N-dimethyl-4-(rac-trans-(1,2)-2-pyrrolidin-1-ylindan-1-yloxy)benzenesulfonamide] | – |
| < 1000 | Cc1nnc(C)n1-c1ccc(O[C@H]2c3cc(Cl)cc(Cl)c3C[C@@H]2N2CC[C@@H](O)C2)c(F)c1 [Example 130, (R)-1-{trans-(1S,2S)-4,6-dichloro-1-[4-(3,5-dimethyl-[1,2,4]triazol-4-yl)-2-fluorophenoxy]indan-2-yl}pyrrolidin-3-ol] | – |
| 1000 to 10000 | N[C@@H]1CCCN([C@@H]2Cc3ccccc3[C@H]2Oc2ccc3c(c2)OCO3)C1 (racemic) [Example 83, (R)-1-[rac-trans-(1,2)-1-(benzo[1,3]dioxol-5-yloxy)indan-2-yl]piperidin-3-ylamine] | – |
| < 1000 | N[C@@H]1CCCN([C@H]2Cc3ccccc3[C@@H]2Oc2ccc(S(N)(=O)=O)cc2)C1 [Example 552, 4-[trans-(1S,2S)-2-((R)-3-aminopiperidin-1-yl)indan-1-yloxy]benzenesulfonamide] | – |
| – | N[C@H]1CCCN([C@H]2CCc3ccccc3[C@@H]2Oc2cccc(F)c2)C1 (racemic) [Example 168, (S)-1-[rac-trans-(1,2)-1-(3-fluorophenoxy)-1,2,3,4-tetrahydronaphthalen-2-yl]piperidin-3-ylamine] | inhibition at 10 µM [1]: 20 to 50% |
| 1000 to 10000 | CC1(C)OC(=O)N(c2ccc(Cl)c(O[C@H]3c4cc(Cl)cc(Cl)c4C[C@@H]3N3CC[C@@H](O)C3)c2)C1=O [Example 432, 3-{4-chloro-3-[(1S,2S)-4,6-dichloro-2-((R)-3-hydroxypyrrolidin-1-yl)indan-1-yloxy]phenyl}-5,5-dimethyloxazolidine-2,4-dione] | – |
| – | Cc1ccc(O[C@H]2c3ccccc3CC[C@@H]2N2CCC[C@H](N)C2)c(Cl)c1 (racemic) [Example 152, (S)-1-[rac-trans-(1,2)-1-(2-chloro-4-methylphenoxy)-1,2,3,4-tetrahydronaphthalen-2-yl]piperidin-3-ylamine] | inhibition at 10 µM [1]: 20 to 50% |
| 1000 to 10000 | CN1CCN(c2cccc(O[C@H]3c4cc(Cl)cc(Cl)c4C[C@@H]3N3CC[C@@H](O)C3)c2)C1=O [Example 319, 1-{3-[trans-(1S,2S)-4,6-dichloro-2-((R)-3-hydroxypyrrolidin-1-yl)indan-1-yloxy]phenyl}-3-methylimidazolidin-2-one] | – |
| – | Cc1cc(O[C@H]2c3cc(Cl)cc(F)c3C[C@@H]2N2CCNCC2)ccc1S(=O)(=O)C(F)(F)F (racemic) [Example 290, 1-[rac-trans-(1,2)-6-chloro-4-fluoro-1-(3-methyl-4-trifluoromethanesulfonylphenoxy)indan-2-yl]piperazine] | inhibition at 10 µM [1]: 20 to 50% |
| < 1000 | CS(=O)(=O)c1ccc(O[C@H]2c3cc(Cl)cc(Cl)c3C[C@@H]2N2CC3C[C@H]2CN3)cc1 [Example 209, (S)-2-[trans-(1S,2S)-4,6-dichloro-1-(4-methanesulfonylphenoxy)indan-2-yl]-2,5-diazabicyclo[2.2.1]heptane] | – |
| – | CC(=O)Nc1cccc(O[C@H]2c3cc(Cl)cc(Cl)c3C[C@@H]2N2C[C@H]3CC[C@@H](C2)N3)c1 [Example 664, N-[3-(trans-(1S,2S)-4,6-dichloro-2-3,8-diazabicyclo[3.2.1]oct-3-ylindan-1-yloxy)phenyl]acetamide] | IC50 (Activity range (inhibitory effect on NHE3)): < 1000 nM |
| < 1000 | CS(=O)(=O)c1ccc(O[C@H]2c3c(Cl)cc(Cl)cc3C[C@@H]2N2CCNCC2)cc1 (racemic) [Example 287, 1-[rac-trans-(1,2)-5,7-dichloro-1-(4-methanesulfonylphenoxy)indan-2-yl]piperazine] | – |
| 1000 to 10000 | c1ccc2c(c1)C[C@H](N1CCCC1)[C@H]2Oc1cccc2cccnc12 (racemic) [Example 595, 8-(rac-trans-(1,2)-2-pyrrolidin-1-ylindan-1-yloxy)quinoline] | – |
| 1000 to 10000 | NC1CCN([C@@H]2Cc3ccccc3[C@H]2Oc2cccc(N3CCNCC3)c2)C1 (mixture of isomers) [Example 270, 1-[rac-trans-(1,2)-1-(3-piperazin-1-ylphenoxy)indan-2-yl]pyrrolidin-3-ylamine] | – |
| < 1000 | O=C1CCCN1c1ccc(Cl)c(O[C@H]2c3cc(Cl)cc(Cl)c3C[C@@H]2N2CC[C@@H](O)C2)c1 [Example 336, 1-{4-chloro-3-[(1S,2S)-4,6-dichloro-2-((R)-3-hydroxypyrrolidin-1-yl)indan-1-yloxy]phenyl}pyrrolidin-2-one] | – |
| < 1000 | CS(=O)(=O)c1nccn1-c1ccc(O[C@H]2c3cc(Cl)cc(F)c3C[C@@H]2NC2CCCC2)c(F)c1 [Example 754, {trans-(1S,2S)-6-Chloro-4-fluoro-1-[2-fluoro-4-(2-methanesulfonyl-imidazol-1-yl)-phenoxy]-indan-2-yl}-cyclopentyl-amine] | – |
| 1000 to 10000 | COCCN1CCCN([C@H]2Cc3c(Cl)cc(Cl)cc3[C@@H]2Oc2ccc(-c3c(C)noc3C)cc2)CC1 [Example 350, 1-{trans-(1S,2S)-4,6-dichloro-1-[4-(3,5-dimethylisoxazol-4-yl)phenoxy]indan-2-yl}-4-(2-methoxyethyl)-[1,4]diazepane] | – |
| – | N#Cc1ccc(-c2ccc(O[C@H]3c4ccccc4CC[C@@H]3N3CCC[C@@H](N)C3)cc2)cc1 (racemic) [Example 517, 4′-[rac-trans-(1,2)-2-((R)-3-aminopiperidin-1-yl)-1,2,3,4-tetrahydronaphthalen-1-yloxy]-biphenyl-4-carbonitrile] | inhibition at 10 µM [1]: 20 to 50% |
| < 1000 | Cc1nnc(C)n1-c1ccc(O[C@H]2c3cc(Cl)ccc3C[C@@H]2N2CC[C@@H](F)C2)c(Cl)c1 [Example 558, 4-{3-chloro-4-[trans-(1S,2S)-6-chloro-2-((R)-3-fluoropyrrolidin-1-yl)indan-1-yloxy]phenyl}-3,5-dimethyl-4H-[1,2,4]triazole] | – |
| – | CS(=O)(=O)c1ccccc1O[C@H]1c2cc(Cl)cc(Cl)c2C[C@@H]1N1CCC1 [Example 245, 1-[(1S,2S)-4,6-dichloro-1-(2-methanesulfonylphenoxy)indan-2-yl]azetidine] | inhibition at 10 µM [1]: 20 to 50% |
| 1000 to 10000 | CC1(C)NC(=O)N(c2ccc(F)c(O[C@H]3c4cc(Cl)cc(F)c4C[C@@H]3N3CC[C@@H](O)C3)c2)C1=O [Example 420, 3-{3-[(1S,2S)-6-chloro-4-fluoro-2-((R)-3-hydroxypyrrolidin-1-yl)indan-1-yloxy]-4-fluorophenyl}-5,5-dimethylimidazolidine-2,4-dione] | – |
| 1000 to 10000 | NCC1CCN([C@@H]2Cc3ccccc3[C@H]2Oc2cccc(C(N)=O)c2)C1 (mixture of isomers) [Example 414, 3-[rac-trans-(1,2)-2-(3-aminomethylpyrrolidin-1-yl)indan-1-yloxy]benzamide] | – |
